Measured values published in US20110105389A1 (priority 2009, published 2011).

What was measured:
[1] = biological target: T1, GHS-R1a receptor (HEK293 cells expressing GHS-R1a receptor) (Homo sapiens, UniProt Q92847); assay: Fluorescence functional assay (ghrelin receptor), Method B2, agonist and antagonist mode; type: cell-based; settings: functional activity as an antagonist at the ghrelin receptor, Methods B2 and B3
T1 construct: host or cells: HEK293
Outline: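 Calcium flux read by ImageTrak epifluorescence in HEK293 cells stably expressing GHS-R1a, loaded 1 h at 37 °C with Calcium-3 dye; buffer HBSS/20 mM Hepes, pH 7.4, with probenecid and BSA. Agonists injected after 10 s baseline, read 50 s more; antagonists 3 min. Sigmoidal fits gave EC50 or IC50.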

[2] = Metabolic stability in human liver microsomes, Method B8; type: in vitro ADME; settings: human liver microsomes 0.8 mg/mL, 5 μM compound, 37° C.
Excerpt: B8. Metabolic Stability in Human Liver Microsomes
The liver is the primary site for phase I (oxidation) and phase II (glucuronidation) enzymatic activity responsible for xenobiotic metabolism. Human liver microsomes are used as in vitro screen of metabolic activity for candidate drugs. Similar studies can be run with microsomes from other species, such as those used for in vivo studies, to determine any significant species differences in the stability profile. The aim of this study was to measure the broad-spectrum metabolic stability of representative compounds of the invention. The key aspects of the experimental design are summarized below: • Human liver microsomes (mixed pool of 15 male and female donors) were purchased from In Vitro Technologies (Baltimore, Md.). • Microsomes characterized for phase I (Cyp2A6, 2D6, 2E1, 1A2, 2C19, 3A4, 4A) and phase II (glucuronidation) enzymatic activity. • Assays are performed using a final concentration of 0.8 mg/mL of microsomes in 100 mM potassium phosphate buffer (1.5 mM NADPH, 8 mM MgCl2, pH 7.4, 37° C.). • Compounds are tested in duplicate samples at a single concentration of 5 μM (0.05% DMSO). • Test articles are incubated with the microsomes at 37° C.

[3] = biological target: T2, ghrelin receptor (HEK-GHSR1 stable cells) (Homo sapiens, UniProt Q92847); assay: Ghrelin receptor inverse agonist assay (HTRF IP-one), Method B4; type: cell-based; settings: inverse agonist at the ghrelin receptor, Method B4
T2 construct: expressed in transfected cells
T2 sequence (Q92847 whole entry): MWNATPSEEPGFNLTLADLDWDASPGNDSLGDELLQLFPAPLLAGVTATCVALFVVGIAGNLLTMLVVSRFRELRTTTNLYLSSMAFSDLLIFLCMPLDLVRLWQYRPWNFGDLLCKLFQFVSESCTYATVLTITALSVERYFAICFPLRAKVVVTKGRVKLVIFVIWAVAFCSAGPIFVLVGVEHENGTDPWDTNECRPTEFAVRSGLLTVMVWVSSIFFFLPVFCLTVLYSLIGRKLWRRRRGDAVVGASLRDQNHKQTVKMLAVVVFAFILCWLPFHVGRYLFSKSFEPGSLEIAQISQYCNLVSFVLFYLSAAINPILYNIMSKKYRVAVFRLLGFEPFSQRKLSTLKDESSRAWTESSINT
Excerpt: B4. Ghrelin Receptor Inverse Agonist Assay […]
In addition, the following method can be utilized to assay for inverse agonist activity. (Thomsen, W.; et al. Curr. Opin. Biotechnol. 2005, 16, 655-665; Tozawa-Takahashi F; et al., 11th SBS Annual Conference. September 2005, Geneva; Trinquet, E.; Fink, M.; Bazin, H.; et al. Anal. Biochem. 2006, 358, 126-135; Bergsdorf, C.; Kropp-Goerkis, C.; Kaehler, I.; Ketscher, L.; Boerner, U.; Parczyk, K.; Bader, B. Assay Drug Dev. Technol. 2008, 6, 39-53.)
• 1. Remove culture medium from the plate by inversion. • 2. Add 70 μl of compound/well. • 3. Incubate 30 min at 37° C. • 4. Stop the reaction by adding 15 μl of lysis buffer/well. • 5. Add 15 μl of d2/well. • 6. Add 15 μl of Anti-IP1 cryptate/well. • 7. Incubate 1 h at room temp on an orbital shaker at 100 RPM. • 8. Read the fluorescence in a plate reader (Tecan GeniosPro or similar)
The above sequence was performed using the HTRF IP-one kit (CisBio cat#62P1APEC). For the simultaneous assay of multiple test compounds, 96-well plates can be utilized in this assay (white plate with flat-bottom well, Falcon #353296). These were seeded overnight with 100 000 of HEK-GHSR1 stable cells/well. • Wells A1 and A2 of each plate are used as negative control (wells without d2). Compounds are typically tested in replicate at the following concentrations:
Compounds are stored at 10 mM in 100% DMSO.
1st dilution 1/10 in 100% DMSO (1 mM final concentration).
2nd dilution 1/10 in H2O (0.1 mM final concentration).
Other dilutions are performed in a 96-well plate in stimulation buffer.
The results for representative compounds of the invention are provided in the Examples.

[4] = biological target: T3, human ghrelin receptor (GRLN, growth hormone secretagogue receptor, hGHS-R1a) (Homo sapiens, UniProt Q92847); assay: Competitive radioligand binding assay (ghrelin receptor), Method B1; settings: Ghrelin receptor binding activity, Method B1
T3 construct: purchased PerkinElmer BioSignal #RBHGHSM, lot#1887; host or cells: HEK-293 cells, stably transfected (membranes)
T3 sequence (Q92847 whole entry): as above
Outline: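 Membranes incubated with compound 30 min at rt in 25 mM Hepes pH 7.4, 1 mM CaCl2, 5 mM MgCl2, 2.5 mM EDTA, 0.4% BSA, max 0.1% DMSO; filtered on PEI-soaked GF/C, washed with cold Tris, scintillation counted. Curves fitted by variable-slope non-linear regression.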

[5] = Pharmacokinetic analysis (intravenous and oral), Method B9; type: in vivo; settings: Table 10b; 2 mg/mL intravenous typically employed
Excerpt: B9. Pharmacokinetic Analysis
The pharmacokinetic (PK) behavior of compounds of the invention and their pharmaceutical compositions can be ascertained by methods well known to those skilled in the art and can be used to investigate the pharmacokinetic parameters (elimination half-life, total plasma clearance, etc.) for intravenous, subcutaneous and oral administration of these substances. (Wilkinson, G. R. “Pharmacokinetics: The Dynamics of Drug Absorption, Distribution, and Elimination” in Goodman & Gilman's The Pharmacological Basis of Therapeutics, Tenth Edition, Hardman, J. G.; Limbird, L. E., Eds., McGraw Hill, Columbus, Ohio, 2001, Chapter 1.) See also U.S. Pat. Nos. 7,476,653; 7,491,695; Intl. Pat. Appl. WO 2008/033328 and U.S. Patent Appl. Publ. 2008/0194672. As an example, compound 1505 has the PK profile below.
The determination of PK parameters for additional representative compounds of the invention is presented in the Examples.
A detailed analysis of the pharmacokinetic profile of representative compounds of the invention was conducted using the procedures outlined in Method B9.
A dose level of 2 mg/mL for intravenous administration and 8 mg/mL for oral administration were typically employed.

T1 sequence (Q92847 whole entry): as above

| Antagonist Activity [1] | HLM, metabolic stability in human liver microsomes [2] | IC50 [3] | IC50 [4] | Cl [5] | t1/2 [5] | SMILES |
| --- | --- | --- | --- | --- | --- | --- |
| B (B = 1-10 nM) | 30.5 μL/min/mg protein |  |  |  |  | COc1cccc(C[C@H]2NC(=O)[C@H](C(C)O)N(C)C(=O)[C@H](C(C)C)NCCOc3ccccc3CC[C@@H](C)NC2=O)c1 (stereo partly drawn) [Compound 1371] |
| A (A <1 nM) | 60.8 μL/min/mg protein |  |  |  |  | CC(C)[C@@H]1NCCOc2ccccc2CC[C@@H](C)NC(=O)[C@@H](Cc2ccc(F)c(F)c2)NC(=O)[C@H](C(C)O)N(C)C1=O (stereo partly drawn) [Compound 1372] |
| A (A <1 nM) | 31 μL/min/mg protein |  |  |  |  | Cc1cccc(C[C@H]2NC(=O)[C@H](C(C)O)N(C)C(=O)[C@H](C(C)C)NCCOc3ccccc3CC[C@@H](C)NC2=O)c1 (stereo partly drawn) [Compound 1373] |
| B (B = 1-10 nM) | 35.8 μL/min/mg protein |  |  |  |  | CC(C)[C@@H]1NCCOc2ccccc2CC[C@@H](C)NC(=O)[C@@H](Cc2cccc(C#N)c2)NC(=O)[C@H](C(C)O)N(C)C1=O (stereo partly drawn) [Compound 1374] |
| C (C = 10-100 nM) | 32.2 μL/min/mg protein |  |  |  |  | CC(C)[C@@H]1NCCOc2c(F)cccc2CCCNC(=O)[C@@H](Cc2ccccc2)NC(=O)[C@H](C(C)O)N(C)C1=O (stereo partly drawn) [Compound 1376] |
|  | 65.5 μL/min/mg protein |  |  |  |  | CC(C)[C@@H]1NCCOc2ccc(F)cc2CCCNC(=O)[C@@H](Cc2ccccc2)NC(=O)[C@H](C(C)O)N(C)C1=O (stereo partly drawn) [Compound 1377] |
| C (C = 10-100 nM) | 42.9 μL/min/mg protein |  |  |  |  | CC(C)[C@@H]1NCCOc2cccc(F)c2CCCNC(=O)[C@@H](Cc2ccccc2)NC(=O)[C@H](C(C)O)N(C)C1=O (stereo partly drawn) [Compound 1378] |
| B (B = 1-10 nM) | 46.6 μL/min/mg protein |  |  |  |  | CC[C@@H]1CCc2ccccc2OCCN[C@@H](C(C)C)C(=O)N(C)[C@@H](C(C)O)C(=O)N[C@H](Cc2ccccc2)C(=O)N1 (stereo partly drawn) [Compound 1393] |
|  | 35.4 μL/min/mg protein |  |  |  |  | CC(C)[C@@H]1NCCOc2ccccc2CC[C@@H](C)NC(=O)[C@@H](Cc2cccc(C(F)(F)F)c2)NC(=O)[C@H](C(C)O)N(C)C1=O (stereo partly drawn) [Compound 1412] |
| B (B = 1-10 nM) | 10.4 μL/min/mg protein |  |  |  |  | Cc1cccc(C[C@H]2NC(=O)[C@H](C(C)O)N(C)C(=O)[C@H](C(C)C)NCCOc3cc(F)ccc3CC[C@@H](C)NC2=O)c1 (stereo partly drawn) [Compound 1451] |
|  | 14.2 μL/min/mg protein |  |  |  |  | COc1cccc(C[C@H]2NC(=O)[C@H](C(C)O)N(C)C(=O)[C@H](C(C)C)NCCOc3cc(F)ccc3CC[C@@H](C)NC2=O)c1 (stereo partly drawn) [Compound 1473] |
|  | 21.8 μL/min/mg protein | 50 to 100 nM | 1 to 10 nM |  |  | CC(C)C1NCCOc2cc(F)ccc2C=CCNC(=O)C(Cc2ccc(F)cc2)NC(=O)C(C(C)O)N(C)C1=O (stereo not drawn) [Compound 1690] |
|  | 53.7 μL/min/mg protein | 100 to 500 nM | 1 to 10 nM |  |  | CC(C)C1NCCOc2ccccc2C#CCNC(=O)C(Cc2cccc(F)c2)NC(=O)C(C(C)O)N(C)C1=O (stereo not drawn) [Compound 1691] |
|  | 14.1 μL/min/mg protein | 50 to 100 nM | 1 to 10 nM |  |  | CC(C)C1NCCOc2cc(F)ccc2C=CCNC(=O)C(Cc2ccccc2)NC(=O)C(C(C)O)N(C)C1=O (stereo not drawn) [Compound 1702] |
|  | 33.5 μL/min/mg protein | 100 to 500 nM | 10 to 100 nM |  |  | CCC(C)C1NCCOc2ccccc2C#CCNC(=O)C(Cc2ccc(Cl)cc2)NC(=O)C(C(C)O)N(C)C1=O (stereo not drawn) [Compound 1704] |
|  | 64.3 μL/min/mg protein | 100 to 500 nM | 10 to 100 nM |  |  | CC[C@@H]1CCc2c(F)cccc2OCCN[C@@H](C(C)C)C(=O)N(C)[C@@H](C(C)O)C(=O)N[C@H](Cc2ccc(F)cc2)C(=O)N1 (stereo partly drawn) [Compound 1723] |
|  | 66.5 μL/min/mg protein | 100 to 500 nM | 10 to 100 nM |  |  | CC[C@@H]1CCc2c(F)cccc2OCCN[C@@H](C(C)C)C(=O)N(C)[C@@H](C(C)O)C(=O)N[C@H](Cc2c[nH]c3ccccc23)C(=O)N1 (stereo partly drawn) [Compound 1725] |
|  | 83.9 μL/min/mg protein | 50 to 100 nM | 1 to 10 nM |  |  | CCC(C)C1NCCOc2ccccc2C=CCNC(=O)C(Cc2ccccc2C)NC(=O)C(C(C)O)N(C)C1=O (stereo not drawn) [Compound 1737] |
|  | 53.2 μL/min/mg protein | 10 to 50 nM | 1 to 10 nM |  |  | CCC(C)C1NCCOc2ccccc2C=CCNC(=O)C(Cc2ccccc2Cl)NC(=O)C(C(C)O)N(C)C1=O (stereo not drawn) [Compound 1738] |
|  | 157.4 μL/min/mg protein | 10 to 50 nM | 10 to 100 nM |  |  | CC(O)[C@H]1C(=O)N[C@H](Cc2ccc(Cl)cc2)C(=O)N[C@H](C)CCc2ccccc2OCCN[C@@H](C(C)(C)C)C(=O)N1C (stereo partly drawn) [Compound 1742] |
|  | 117.0 μL/min/mg protein | 100 to 500 nM | 10 to 100 nM |  |  | CC(O)[C@H]1C(=O)N[C@H](Cc2c[nH]c3ccccc23)C(=O)N[C@H](C)CCc2ccccc2OCCN[C@@H](C2CC2)C(=O)N1C (stereo partly drawn) [Compound 1745] |
|  | 90.4 μL/min/mg protein | 10 to 50 nM | 1 to 10 nM |  |  | CC(C)[C@@H]1NCCOc2cc(F)ccc2CC[C@@H](C)NC(=O)[C@@H](Cc2ccc(Cl)cc2)NC(=O)[C@H](C(C)O)N(C)C1=O (stereo partly drawn) [Compound 1758] |
|  | 34.8 μL/min/mg protein | 50 to 100 nM | 1 to 10 nM |  |  | CC[C@@H]1C#Cc2ccc(F)cc2OCCN[C@@H](C(C)C)C(=O)N(C)[C@@H](C(C)O)C(=O)N[C@H](Cc2cccc(F)c2)C(=O)N1 (stereo partly drawn) [Compound 1760] |
| B (B = 1-10 nM) |  | 10 to 50 nM | 1 to 10 nM | 10 ± 1 mL/min/kg | 1.72 ± 0.217 h | CCC1CCc2ccc(F)cc2OCCNC(C(C)C)C(=O)N(C)C(C(C)O)C(=O)NC(Cc2c[nH]c3ccc(F)cc23)C(=O)N1 (stereo not drawn) [Compound 1803] |
